From patent US8841321B2, “Quinoline derivatives as antibacterial agents” (Janssen Pharmaceutica NV, priority 2005, dated 2014)
Converted amounts (≈) assume the structure as drawn.

How the values were obtained:
Experiment in all cases: Microtitre plate assay, IC90 determination
Assay type in all cases: cell-based
[1] = test system: PAE 27853 (Pseudomonas aeruginosa (ATCC27853)); conditions: for IC90 (μg/ml) PAE 27853: Pseudomonas aeruginosa (ATCC27853); for IC90: Pseudomonas aeruginosa, ATCC27853, Pseudomonas aeruginosa (ATCC27853), read-out: IC90 (μg/ml) PAE 27853
[2] = test system: STA 29213 (Staphylococcus aureus (ATCC29213)); conditions: for IC90 (μg/ml) STA 29213: Staphylococcus aureus (ATCC29213)
Outline: (§1)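 Growth-inhibition endpoint: resazurin added 3 h after inoculation, plates incubated overnight, fluorescence at 530/590 nm after 24 h at 37 °C. Inocula of roughly 10–60 CFU per well in Mueller-Hinton medium; compounds titrated five-fold. IC90 reported as μg/ml.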

[3] = test system: SPN 6305 (Streptococcus pneumoniae (ATCC6305)); conditions: for IC90 (μg/ml) SPN 6305: Streptococcus pneumoniae (ATCC6305)
Outline: as §1

[4] = test system: EFA 29212 (Enterococcus faecalis (ATCC29212)); conditions: for IC90 (μg/ml) EFA 29212: Enterococcus faecalis (ATCC29212); for IC90: Enterococcus faecalis, ATCC29212, Enterococcus faecalis (ATCC29212), read-out: IC90 (μg/ml) EFA 29212
[5] = test system: STA RMETH (methicilline resistant Staphylococcus aureus (MRSA), a clinical isolate from the University of Antwerp)
[6] = test system: SPY 8668 (Streptococcus pyogens (ATCC8668)); conditions: for IC90 (μg/ml) SPY 8668: Streptococcus pyogens (ATCC8668); for IC90: Streptococcus, ATCC8668, Streptococcus pyogens (ATCC8668), read-out: IC90 (μg/ml) SPY 8668

| SMILES | IC90 (μg/ml) PAE 27853 [1] | IC90 (μg/ml) STA 29213 [2] | IC90 (μg/ml) SPN 6305 [3] | IC90 (μg/ml) EFA 29212 [4] | IC90 (μg/ml) STA RMETH [5] | IC90 (μg/ml) SPY 8668 [6] | IC90 [1] | IC90 [4] | IC90 [6] | IC90 ([3]; Streptococcus pneumoniae, ATCC6305, Streptococcus pneumoniae (ATCC6305), read-out: IC90 (μg/ml) SPN 6305) | IC90 ([2]; Staphylococcus aureus, ATCC29213, Staphylococcus aureus (ATCC29213), read-out: IC90 (μg/ml) STA 29213) |
| --- | --- | --- | --- | --- | --- | --- | --- | --- | --- | --- | --- |
| CNCCCCC(O)(c1ccc2ccccc2c1)C(c1ccccc1)c1cc2cc(Br)ccc2nc1OC (racemic) [Compound 75] | 2.02 µg/mL (≈ 3.55 µM) | 2.02 µg/mL (≈ 3.55 µM) | 0.9 µg/mL (≈ 1.58 µM) | 4.03 µg/mL (≈ 7.08 µM) | 11.36 µg/mL (≈ 19.9 µM) | 1.8 µg/mL (≈ 3.16 µM) |  |  |  |  |  |
| COc1nc2ccc(Br)cc2cc1C(c1ccccc1)C(O)(CCCCN1CCN(C)CC1)c1ccc2ccccc2c1 (single isomer, unassigned) [Compound 112] | 2.02 µg/mL (≈ 3.16 µM) | 2.02 µg/mL (≈ 3.16 µM) | 2.54 µg/mL (≈ 3.98 µM) | 2.02 µg/mL (≈ 3.16 µM) | 2.54 µg/mL (≈ 3.98 µM) | 2.02 µg/mL (≈ 3.16 µM) |  |  |  |  |  |
| COc1nc2ccc(Br)cc2cc1C(c1ccccc1)C(O)(CCCCN1CCN(C)CC1)CCc1ccccc1 (single isomer, unassigned) [Compound 137] | 9.77 µg/mL (≈ 15.8 µM) | 1.95 µg/mL (≈ 3.16 µM) | 1.95 µg/mL (≈ 3.16 µM) | 9.77 µg/mL (≈ 15.8 µM) | 12.3 µg/mL (≈ 19.9 µM) | 1.95 µg/mL (≈ 3.16 µM) |  |  |  |  |  |
| COc1nc2ccc(Br)cc2cc1C(c1ccccc1)C(O)(CCCCN1CCN(C)CC1)CCc1ccccc1 (single isomer, unassigned) [Compound 138] | 2.19 µg/mL (≈ 3.55 µM) | 2.45 µg/mL (≈ 3.97 µM) | 2.19 µg/mL (≈ 3.55 µM) | 1.74 µg/mL (≈ 2.82 µM) | 12.3 µg/mL (≈ 19.9 µM) | 0.87 µg/mL (≈ 1.41 µM) |  |  |  |  |  |
| COc1nc2ccc(Br)cc2cc1C(c1ccccc1)C(O)(CCCCN1CCN(C)CC1)CCc1ccc(C)cc1 (single isomer, unassigned) [Compound 141] | 4.46 µg/mL (≈ 7.07 µM) | 1.99 µg/mL (≈ 3.16 µM) | 1.99 µg/mL (≈ 3.16 µM) | 4.46 µg/mL (≈ 7.07 µM) | 14.12 µg/mL (≈ 22.4 µM) | 4.46 µg/mL (≈ 7.07 µM) |  |  |  |  |  |
| COc1nc2ccc(C)cc2cc1C(c1ccccc1)C(O)(CCCCCN(C)C)c1ccccc1 (single isomer, unassigned) [Compound 152] | 38.3 µg/mL (≈ 79.4 µM) | 7.7 µg/mL (≈ 16 µM) | 1.5 µg/mL (≈ 3.11 µM) | 38.3 µg/mL (≈ 79.4 µM) |  | 38.3 µg/mL (≈ 79.4 µM) |  |  |  |  |  |
| COc1ccc(C(c2cc3cc(Br)ccc3nc2OC)C(O)(CCCCN(C)C)c2ccc3ccccc3c2)cc1 (single isomer, unassigned) [Compound 158] | 0.87 µg/mL (≈ 1.42 µM) | 0.4 µg/mL (≈ 0.652 µM) | 1.22 µg/mL (≈ 1.99 µM) | 1.94 µg/mL (≈ 3.16 µM) |  | 0.87 µg/mL (≈ 1.42 µM) |  |  |  |  |  |
| COc1nc2ccccc2cc1C(c1cccc(Br)c1)C(O)(CCCCN(C)C)c1ccc2ccccc2c1 (single isomer, unassigned) [Compound 159] | 1.85 µg/mL (≈ 3.17 µM) | 1.85 µg/mL (≈ 3.17 µM) | 0.41 µg/mL (≈ 0.703 µM) | 1.85 µg/mL (≈ 3.17 µM) |  | 1.47 µg/mL (≈ 2.52 µM) |  |  |  |  |  |
| COc1ccc(C(O)(CCCCN2CCCCC2)C(c2ccc(C)cc2)c2cc3cc(Br)ccc3nc2OC)cc1 (single isomer, unassigned) [Compound 168] | 1.95 µg/mL (≈ 3.16 µM) | 2.19 µg/mL (≈ 3.55 µM) | 2.46 µg/mL (≈ 3.98 µM) | 1.95 µg/mL (≈ 3.16 µM) |  | 1.95 µg/mL (≈ 3.16 µM) |  |  |  |  |  |
| COc1nc2ccc(Br)cc2cc1C(c1ccc(Cl)cc1)C(O)(CCCCN1CCCCC1)c1ccccc1 (single isomer, unassigned) [Compound 170] | 9.64 µg/mL (≈ 15.9 µM) | 21.57 µg/mL (≈ 35.5 µM) | 9.64 µg/mL (≈ 15.9 µM) | 9.64 µg/mL (≈ 15.9 µM) |  | 9.64 µg/mL (≈ 15.9 µM) |  |  |  |  |  |
| COc1nc2ccc(Br)cc2cc1C(c1ccc(Cl)c(Cl)c1)C(O)(CCCCN1CCCCC1)c1ccccc1 (single isomer, unassigned) [Compound 173] | 2.03 µg/mL (≈ 3.16 µM) | 2.03 µg/mL (≈ 3.16 µM) | 0.91 µg/mL (≈ 1.42 µM) | 2.03 µg/mL (≈ 3.16 µM) |  | 0.91 µg/mL (≈ 1.42 µM) |  |  |  |  |  |
| CSc1nc2ccc(Br)cc2cc1C(c1ccccc1)C(O)(CCCCN(C)C)c1ccccc1 (stereo not shown) [Compound 1] | 1.95 µg/mL (≈ 3.55 µM) | 1.74 µg/mL (≈ 3.17 µM) | 1.74 µg/mL (≈ 3.17 µM) | 6.92 µg/mL (≈ 12.6 µM) | 12.3 µg/mL (≈ 22.4 µM) | 1.74 µg/mL (≈ 3.17 µM) |  |  |  |  |  |
| COc1nc2ccc(Br)cc2cc1C(c1ccccc1)C(O)(CCCCCN(C)C)c1ccc2ccccc2c1 (stereo not shown) [Compound 59] |  | 0.8 µg/mL (≈ 1.34 µM) | 0.84 µg/mL (≈ 1.41 µM) |  |  |  | 1.89 µg/mL (≈ 3.16 µM) | 1.89 µg/mL (≈ 3.16 µM) | 2.12 µg/mL (≈ 3.55 µM) |  |  |
| COc1nc2ccccc2cc1C(c1ccc(Br)cc1)C(O)(CCCCN(C)C)c1ccc2ccccc2c1 (stereo not shown) [Compound 64] |  | 1.85 µg/mL (≈ 3.17 µM) | 1.85 µg/mL (≈ 3.17 µM) |  |  |  | 0.46 µg/mL (≈ 0.788 µM) | 1.85 µg/mL (≈ 3.17 µM) | 1.85 µg/mL (≈ 3.17 µM) |  |  |
| CNCCCC(O)(c1ccc(F)cc1)C(c1ccccc1)c1cc2cc(Br)ccc2nc1OC (stereo not shown) [Compound 69] |  | 1.7 µg/mL (≈ 3.25 µM) |  |  |  | 6.59 µg/mL (≈ 12.6 µM) | 7.39 µg/mL (≈ 14.1 µM) | 9.3 µg/mL (≈ 17.8 µM) |  | 1.65 µg/mL (≈ 3.15 µM) |  |
| COc1nc2ccc(Br)cc2cc1C(c1ccccc1)C(O)(CCCCN1CCNCC1)c1ccc2ccccc2c1 (stereo not shown) [Compound 106] | 1.98 µg/mL (≈ 3.17 µM) | 1.98 µg/mL (≈ 3.17 µM) | 1.98 µg/mL (≈ 3.17 µM) | 1.98 µg/mL (≈ 3.17 µM) |  | 1.98 µg/mL (≈ 3.17 µM) |  |  |  |  |  |
| COc1nc2ccc(Br)cc2cc1C(c1ccccc1)C(O)(CCCCN1CCNCC1)c1ccc2ccccc2c1 (stereo not shown) [Compound 107] |  |  | 0.39 µg/mL (≈ 0.624 µM) |  |  |  | 1.98 µg/mL (≈ 3.17 µM) | 1.98 µg/mL (≈ 3.17 µM) | 1.98 µg/mL (≈ 3.17 µM) |  | 1.98 µg/mL (≈ 3.17 µM) |
